Assay: Confocal laser scanning microscopy of skin penetration of dye
Type: in vitro ADME
Settings: CLSM of rat skin, calcein dye (FIG. 2)
Description: FIG. 2. CLSM image of rat skin: without calcein dye under (a) calcein filter (b) bright field; with free calcein solution under (c) calcein filter (d) bright field; with calcein-loaded SPC liposomes under (e) calcein filter (f) bright field.

## O=C(O)CN(CC(=O)O)Cc1cc2c(cc1O)Oc1cc(O)c(CN(CC(=O)O)CC(=O)O)cc1C21OC(=O)c2ccccc21 [free dye, calcein]
  Penetration of dye through skin: visible only at the surface of the skin and around the hair follicles

— patent publication US9375388B2, “Nanoparticle based cosmetic composition” (Indian Institute of Technology, priority 2011, dated 2016)
